Data from ChEMBL document CHEMBL1140678, “New triterpene glucosides, oligoporins A-C, from Oligoporus tephroleucus protect DNA from Fenton reaction” (Bioorg Med Chem Lett, 2007).

Legend:
Escherichia coli [1] = assay: Inhibition of fenton reaction-induced pBR322 supercoiled DNA damage; assay type: functional
Escherichia coli [2] = assay: Inhibition of fenton reaction-induced pBR322 supercoiled DNA damage at 1 mM; assay type: functional

Row | Structure (SMILES) | Activity (Escherichia coli [1]) | inhibition (Escherichia coli [2]) [%]
1 | C/C(=C/CC[C@@H](C)[C@H]1CC[C@@]2(C)C3=C(C[C@@H](O[C@@H]4O[C@H](CO)[C@@H](O)[C@H](O)[C@H]4O)[C@]12C)[C@@]1(C)CC[C@@H](O)C(C)(C)[C@@H]1CC3=O)C(=O)O | Dose-dependent effect | 90
2 | C/C(=C/CC[C@@H](C)[C@H]1CC[C@@]2(C)C3=CC[C@H]4C(C)(C)[C@H](O)CC[C@]4(C)C3=C[C@@H](O[C@@H]3O[C@H](CO)[C@@H](O)[C@H](O)[C@H]3O)[C@]12C)C(=O)O | Dose-dependent effect | –
3 | C/C(=C/CC[C@@H](C)[C@H]1CC[C@@]2(C)C3=CC[C@H]4C(C)(C)C(=O)CC[C@]4(C)C3=C[C@@H](O[C@@H]3O[C@H](CO)[C@@H](O)[C@H](O)[C@H]3O)[C@]12C)C(=O)O | Dose-dependent effect | –
